The values below come from the NIST ThermoML archive (doi:10.1021/acs.jced.5b00805).

A short description of data set [1]: wn = mass fraction of the nth substance listed. To be noted: 100 kPa, Liquid, Vibrating tube method.
Data set [2] is described as follows: refractive index (Na D-line) (dimensionless); wn = mass fraction of the nth substance listed. To be noted: 100 kPa, Liquid, Standard Abbe refractometry.

± gives the expanded uncertainty stated by the source.

For the compound `O=S(=O)([O-])[O-].[Li+].[Li+]` [lithium sulfate] + O, the mass density in data set [1] (288.15 K, w1 = 0.2601) is listed as 1236.43 ± 1 kg/m3; in data set [1] (308.15 K, w1 = 0.2537) it was 1226.22 ± 1 kg/m3. Also, the refractive index in data set [2] (288.15 K, w1 = 0.2601) stood at 1.3845 ± 0.0004; in data set [2] (308.15 K, w1 = 0.2537), 1.3738 ± 0.0004.

Regarding `[Cl-].[Li+]` [lithium chloride] + O, the mass density in data set [1] (288.15 K, w1 = 0.4413) came out at 1287.19 ± 1.1 kg/m3; in data set [1] (308.15 K, w1 = 0.4664), 1301.11 ± 1.1 kg/m3. In addition, the refractive index in data set [2] (288.15 K, w1 = 0.4413) came out at 1.4394 ± 0.0004; in data set [2] (308.15 K, w1 = 0.4664) it was 1.4365 ± 0.0004.
